Laboratory results as given in US11820822B2, “Methods for sensitizing cancer cells to T cell-mediated killing by modulating molecular pathways” (DANA-FARBER CANCER INSTITUTE, INC., priority 2017, dated 2023).

How the values were obtained:
[1] = system: B16F10-Cas9 cells co-cultured with Pmel-1 T cells; assay: Genome-scale CRISPR-Cas9 screen, selection with Pmel-1 T cells; type: cell-based, mouse; conditions: Table 3; B16F10-Cas9 cells pre-treated with IFNγ, co-cultured with Pmel-1 T cells 1:1 for three days; negative = depleted, positive = enriched
[2] = system: B16F10-Cas9 cells pulsed with SIINFEKL peptide, co-cultured with OT-I T cells; assay: Genome-scale CRISPR-Cas9 screen, selection with OT-I T cells; type: cell-based, mouse; conditions: Table 3; B16F10-Cas9 cells pulsed with SIINFEKL, co-cultured with OT-I T cells 1:1 for one day; negative = depleted, positive = enriched

| Sequence | Pmel+ (sgRNA Log(2) fold change, Pmel-1 selection versus control T cells) [1] | OT1 (sgRNA Log(2) fold change, OT-I selection versus control T cells) [2] |
| --- | --- | --- |
| TGGACATGAGCCATATGTTG (chemistry not fully specified) | 3.35 | -0.14 |
| TATGGAGCGGTGTATGCCCG (chemistry not fully specified) | 1.27 | -3.33 |
| GCCTGTACCACGCAGCCAAG (chemistry not fully specified) | 0.00 | -2.37 |
| TGGACCTCCGAAAAACATCT (chemistry not fully specified) | 5.37 | 3.78 |
| CGACGCAAGTGGGAGCAGAG (chemistry not fully specified) | 3.91 | -2.09 |
| GGAATCCCTGTGCTGATCGT (chemistry not fully specified) | -0.49 | -2.76 |
| GGAAACGTGGCATGTCTCGG (chemistry not fully specified) | 2.66 | 1.93 |
| ATAGCACCAAAGCCTAACAA (chemistry not fully specified) | 0.00 | -2.27 |
| TACTGATCATAAACGAACCA (chemistry not fully specified) | 0.25 | -3.34 |
| CACTGCGAGACCAATCTAGA (chemistry not fully specified) | 2.24 | 1.44 |
| GGTTCCTTGCGGGACTCCGT (chemistry not fully specified) | -2.53 | -3.31 |
| CAGCCTGCTGAGGATCCAGA (chemistry not fully specified) | -1.07 | -2.33 |
| TGATGAGCAGATTCTAACTT (chemistry not fully specified) | 5.03 | 3.81 |
| AGTTGGATCGCGAATAAAGA (chemistry not fully specified) | -2.35 | -2.70 |
| TAATTGCTGAGAATGTACTC (chemistry not fully specified) | 0.00 | -2.54 |
| ACGCAATGAAAAGGTTTAGG (chemistry not fully specified) | 2.19 | -2.24 |
| TCTTCAGGAGAGAATACCAT (chemistry not fully specified) | 3.86 | 3.69 |
| AGAAGGCAGGCAGAGTGGTG (chemistry not fully specified) | -0.75 | -2.13 |
| GCTCGATGGATAGCATTCAC (chemistry not fully specified) | 0.17 | -3.98 |
| AAGGGCCACTTACAATTAGG (chemistry not fully specified) | 2.10 | -0.44 |

| Sequence | Pmel+ (sgRNA Log(2) fold change, Pmel-1 selection versus control T cells) [1] | OT1 (sgRNA Log(2) fold change, OT-I selection versus control T cells) [2] |
| --- | --- | --- |
| CATGAGGTAGAATAGTTCGT (chemistry not fully specified) | 2.15 | -0.65 |
| TTAATGACGAGCTCGTGGAG (chemistry not fully specified) | 8.60 | 2.25 |
| ACTTCTGATTGGCGATTCTG (chemistry not fully specified) | -2.49 | -3.78 |
| AGGGAACCTCACTTCCAAGT (chemistry not fully specified) | 4.83 | 3.12 |
| AAGACATATAGTTATCAGCA (chemistry not fully specified) | -1.83 | -2.22 |
| GGCCCCGACTCAGACCCGCG (chemistry not fully specified) | 3.60 | 5.15 |
| CCTGGGCTAGCACATAACCA (chemistry not fully specified) | 0.10 | -3.35 |
| ATTTGGATTTCAATGTGAGG (chemistry not fully specified) | 3.20 | 5.19 |
| TAGCCGACAGAGATGTACCG (chemistry not fully specified) | 3.52 | 0.05 |
| AATGCTGACGACTTTCAATG (chemistry not fully specified) | 0.00 | -2.31 |
| TTGTGCCTAAACAAAAAACA (chemistry not fully specified) | 0.85 | -2.52 |
| AGGTCACAATGTACCAACCC (chemistry not fully specified) | -2.61 | -1.71 |
| TGTTCTAGGAAACTACATGG (chemistry not fully specified) | 1.10 | -2.76 |
| CATAGCCAGAACAGTTGACC (chemistry not fully specified) | -0.66 | -2.44 |
| GAGTTGCAGCCAGATACGCG (chemistry not fully specified) | -1.28 | -3.25 |
| GCTGGGGAACTCAATTATAG (chemistry not fully specified) | 2.03 | -0.78 |
| CCTTCAATAACGTTAAACAG (chemistry not fully specified) | -0.26 | -2.79 |
| GCTGTGGGGACTGCTAAAAG (chemistry not fully specified) | 2.22 | -1.12 |
| TGAGTATACTTGAATTTGAG (chemistry not fully specified) | 3.55 | 5.51 |
